Experimental findings from patent US9115143B2, “Substituted indole derivatives as gamma secretase modulators” (Janssen Pharmaceuticals, Inc., priority 2011, dated 2015) are described below.

Experiment [1] deals with Aβ42. Briefly: Screening for γ-secretase-modulating activity: Aβ42 in supernatant of SKNBE2 cells carrying hAPP 695 wild type (Alphalisa). Conditions: overnight incubation, Alphalisa on supernatant. It is filed as cell-based, human. Summed up: (§1)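 SKNBE2 human neuroblastoma cells expressing wild-type hAPP 695 (10^4/well) were incubated overnight at 37 °C, 5% CO2 with compound at several concentrations. Supernatant Aβ42 and Aβtotal measured by AlphaLISA sandwich immunoassays; IC50 from 4-parameter fit of percent of untreated control versus log concentration.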

Experiment [2] relates to Aβtotal. Briefly: Screening for γ-secretase-modulating activity: Aβtotal in supernatant of SKNBE2 cells carrying hAPP 695 wild type (Alphalisa). It is filed as cell-based, human. Conditions: overnight incubation, Alphalisa on supernatant. The essentials:
as §1

Experiment [3] deals with Aβ42. In words: In vivo efficacy B-1a: brain soluble Aβ42 in non-transgenic rodents, ELISA. Further details: species or system mouse. The settings on record: dose 30 mg/kg oral dosing, brain soluble fraction, untreated animals (Ctrl) set at 100; for response vs control in vivo at 30 mg/kg: Mus musculus, po, read-out: Aβ42 (% vs Ctrl)_Mean; for Aβ42 (% vs Ctrl)_Mean: 30 mg/kg. The text has this:
(§2) To determine whether acute administration of an Aβ42 lowering agent would reduce Aβ42 levels in vivo, non-transgenic rodents, e.g. mice or rats were used. Animals treated with the Aβ42 lowering agent were examined and compared to those untreated or treated with vehicle and brain levels of soluble Aβ42 and total Aβ were quantitated by standard techniques, for example, using ELISA. Treatment periods varied from hours (h) to days and were adjusted based on the results of the Aβ42 lowering once a time course of onset of effect could be established.
(§3) A typical protocol for measuring Aβ42 lowering in vivo is shown but it is only one of many variations that could be used to optimize the levels of detectable Aβ. For example, Aβ42 lowering compounds were formulated in 20% of Captisol® (a sulfobutyl ether of β-cyclodextrin) in water or 20% hydroxypropyl β cyclodextrin. The Aβ42 lowering agents were administered as a single oral dose or by any acceptable route of administration to overnight fasted animals. After 4 h, the animals were sacrificed and Aβ42 levels were analysed.
(§4) Blood was collected by decapitation and exsanguinations in EDTA-treated collection tubes. Blood was centrifuged at 1900 g for 10 minutes (min) at 4° C. and the plasma recovered and flash frozen for later analysis. The brain was removed from the cranium and hindbrain. The cerebellum was removed and the left and right hemisphere were separated. The left hemisphere was stored at −18° C. for quantitative analysis of test compound levels. The right hemisphere was rinsed with phosphate-buffered saline (PBS) buffer and immediately frozen on dry ice and stored at −80° C. until homogenization for biochemical assays.
(§5) Mouse brains from non-transgenic animals were resuspended in 8 volumes of 0.4% DEA (diethylamine)/50 mM NaCl containing protease inhibitors (Roche-11873580001 or 04693159001) per gram of tissue, e.g. for 0.158 g brain, add 1.264 mL of 0.4% DEA. All samples were homogenized in the FastPrep-24 system (MP Biomedicals) using lysing matrix D (MPBio #6913-100) at 6 m/s for 20 seconds. Homogenates were centrifuged at 20800×g for 5 min and supernatants collected. Supernatants were centrifuged at 221.300×g for 50 min. The resulting high speed supernatants were then transferred to fresh eppendorf tubes. Nine parts of supernatant were neutralized with 1 part 0.5 M Tris-HCl pH 6.8 and used to quantify Aβtotal and Aβ42.
(§6) To quantify the amount of Aβtotal and Aβ42 in the soluble fraction of the brain homogenates, Enzyme-Linked-Immunosorbent-Assays were used. Briefly, the standards (a dilution of synthetic Aβ1-40 and Aβ1-42, Bachem) were prepared in 1.5 mL Eppendorf tube in Ultraculture, with final concentrations ranging from 10000 to 0.3 pg/mL. The samples and standards were co-incubated with HRPO-labelled N-terminal antibody JRF/rAμ/2 for Aβ42 detection and with the biotinylated mid-domain antibody 4G8 for Aβtotal detection. 50 μl of conjugate/sample or conjugate/standards mixtures were then added to the antibody-coated plate (the capture antibodies selectively recognize the C-terminal end of Aβ42, antibody JRF/cAβ42/26, for Aβ42 detection and the N-terminus of AB, antibody JRF/rAβ/2, for Aβtotal detection). The plate was allowed to incubate overnight at 4° C. in order to allow formation of the antibody-amyloid complex. Following this incubation and subsequent wash steps the ELISA for Aβ42 quantification was finished by addition of Quanta Blu fluorogenic peroxidase substrate according to the manufacturer's instructions (Pierce Corp., Rockford, Ill.). A reading was performed after 10 to 15 min (excitation 320 nm/emission 420 nm).
In this model a Aβ42 lowering compared to untreated animals would be advantageous, in particular a Aβ42 lowering with at least 10%, more in particular a Aβ42 lowering with at least 20%.
The results are shown in Table 4 (dose 30 mg/kg oral dosing) (value for untreated animals as control (Ctrl) was set at 100): […]

Experiment [4] deals with Aβtotal. Briefly: In vivo efficacy B-1a/B-2a: brain soluble Aβtotal in non-transgenic rodents, ELISA. The settings on record: dose 30 mg/kg oral dosing, brain soluble fraction, untreated animals (Ctrl) set at 100; for response vs control in vivo at 30 mg/kg: Mus musculus, po, 4 h, read-out: Aβtotal (% vs Ctrl)_Mean. Further details: species or system mouse.
Text: as §2, §3, §4, §5, §6
For Aβtotal detection, a Streptavidine-Peroxidase-Conjugate was added, followed 60 min later by an additional wash step and addition of Quanta Blu fluorogenic peroxidase substrate according to the manufacturer's instructions (Pierce Corp., Rockford, Ill.). A reading was performed after 10 to 15 min (excitation 320 nm/emission 420 nm). […]

[5] abbreviates: SKNBE2 human neuroblastoma cells carrying hAPP 695 wild type.
[6] abbreviates: Homo sapiens, SKNBE2, SKNBE2 human neuroblastoma cells carrying hAPP 695 wild type.

The structures appear in SMILES notation.

As for `Cc1cn(-c2ccc3[nH]c(-c4nc5n(n4)CCCC5c4ccc(F)cc4C)cc3c2)cn1` (single isomer, unassigned) [Compound 77, 8-(4-fluoro-2-methylphenyl)-5,6,7,8-tetrahydro-2-[5-(4-methyl-1H-imidazol-1-yl)-1H-indol-2-yl]-[1,2,4]triazolo[1,5-a]pyridine], the IC50 in the experiment with Aβ42 [1] (setting [5]) was 24 nM; in the experiment on Aβtotal [2] (setting [5]), > 10000 nM. In addition, the response vs control in vivo at 30 mg/kg in the experiment on Aβ42 [3] turned out to be 104%; in the experiment with Aβtotal [4], 102%.

With `Cc1cc(F)ccc1C1OCCn2cc(-c3cc4nc(-c5cnn(C)c5)ccc4[nH]3)nc21` (single isomer, unassigned) [Compound 102, 8-(4-fluoro-2-methylphenyl)-5,6-dihydro-2-[5-(1-methyl-1H-pyrazol-4-yl)-1H-pyrrolo[3,2-b]pyridin-2-yl]-8H-imidazo[2,1-c][1,4]oxazine], the results for the IC50 with Aβ42 [1] (setting [5]) and in the experiment on Aβtotal [2] (setting [5]) were 89 nM and > 10000 nM, respectively. Further, the results for the response vs control in vivo at 30 mg/kg with Aβ42 [3] and in the experiment with Aβtotal [4] were 98% and 121%, respectively.

With `COc1c(C#N)ccc2[nH]c(-c3nc4n(n3)CCOC4c3c(F)cccc3Cl)cc12` (single isomer, unassigned) [Compound 117, 2-[8-(2-chloro-6-fluorophenyl)-5,6-dihydro-8H-[1,2,4]triazolo[5,1-c][1,4]oxazin-2-yl]-4-methoxy-1H-indole-5-carbonitrile], the figures for the IC50 in the experiment on Aβ42 [1] (setting [5]) and in the experiment with Aβtotal [2] (setting [6]) were 37 nM and > 10000 nM, respectively. In addition, the response vs control in vivo at 30 mg/kg in the experiment with Aβ42 [3] was found to be 63%; with Aβtotal [4] it was 103%.

With `Cc1cc(F)ccc1C1CCCn2nc(-c3[nH]c4ccc(C#N)cc4c3F)nc21` (single isomer, unassigned) [Compound 182, 3-fluoro-2-[8-(4-fluoro-2-methylphenyl)-5,6,7,8-tetrahydro[1,2,4]triazolo[1,5-a]pyridin-2-yl]-1H-indole-5-carbonitrile], the IC50 was 117 nM in the experiment with Aβ42 [1] (setting [5]) and > 10000 nM in the experiment with Aβtotal [2] (setting [5]). Besides, the values for the response vs control in vivo at 30 mg/kg in the experiment with Aβ42 [3] and in the experiment on Aβtotal [4] were 122% and 118%, respectively.

As to `Cc1cc(F)ccc1C1CCCn2cc(-c3cc4cc(C#N)ccc4[nH]3)nc21` (stereo not shown) [Compound 4, 2-[8-(4-fluoro-2-methylphenyl)-5,6,7,8-tetrahydroimidazo[1,2-a]pyridin-2-yl]-1H-indole-5-carbonitrile], the IC50 with Aβ42 [1] (setting [5]) is 87 nM; in the experiment with Aβtotal [2] (setting [6]), > 10000 nM. Also, in the experiment on Aβ42 [3], the “Aβ42 (% vs Ctrl)_Mean” value stood at 63 % vs Ctrl. The “Aβtotal (% vs Ctrl)_Mean” value in the experiment with Aβtotal [4] (30 mg/kg) is listed as 82 % vs Ctrl.

For `Cc1cn(-c2ccc3[nH]c(-c4nc5n(n4)CCCC5c4ccccc4C)cc3n2)cn1.Cl` (stereo not shown) [Compound 5, 5,6,7,8-tetrahydro-2-[5-(4-methyl-1H-imidazol-1-yl)-1H-pyrrolo[3,2-b]pyridin-2-yl]-8-(2-methylphenyl)-[1,2,4]triazolo[1,5-a]pyridine], the IC50 in the experiment on Aβ42 [1] (setting [6]) was 105 nM; in the experiment on Aβtotal [2] (setting [6]), > 10000 nM. For the same compound, the response vs control in vivo at 30 mg/kg in the experiment with Aβ42 [3] was 106%; in the experiment with Aβtotal [4] it was 80%.

For `Cc1cc(-c2ccc3[nH]c(-c4nc5n(n4)CCCC5c4ccccc4C)cc3n2)ccn1` (stereo not shown) [Compound 6, 5,6,7,8-tetrahydro-8-(2-methylphenyl)-2-[5-(2-methyl-4-pyridinyl)-1H-pyrrolo[3,2-b]pyridin-2-yl]-[1,2,4]triazolo[1,5-a]pyridine], the IC50 was 47 nM in the experiment on Aβ42 [1] (setting [6]) and > 10000 nM in the experiment with Aβtotal [2] (setting [6]). Besides, the figures for the response vs control in vivo at 30 mg/kg in the experiment with Aβ42 [3] and in the experiment with Aβtotal [4] were 79% and 87%, respectively.

In the case of `COc1c(C#N)ccc2[nH]c(-c3nc4n(n3)CCOC4c3ccc(F)cc3C)cc12` (stereo not shown) [Compound 114, 2-[8-(4-fluoro-2-methylphenyl)-5,6-dihydro-8H-[1,2,4]triazolo[5,1-c][1,4]oxazin-2-yl]-4-methoxy-1H-indole-5-carbonitrile], the IC50 with Aβ42 [1] (setting [5]) was 32 nM; with Aβtotal [2] (setting [5]) it was > 10000 nM. The “Aβ42 (% vs Ctrl)_Mean” value in the experiment on Aβ42 [3] is 95 % vs Ctrl.
